Measured values taken from patent US6677368B2, “4-aryl substituted indolinones” (Sugen, Inc., priority 2000, dated 2004).
pIC50: −log10 of the molar value.

Experiments:
Type in all cases: biochemical
[1] = target: P38 (Homo sapiens, UniProt Q16539); assay: P38 kinase inhibition
[2] = target: T1, SRC (Homo sapiens, UniProt P12931); assay: Src transphosphorylation assay; conditions: recombinant human Src, poly(Glu-Tyr) substrate
T1 construct: purchased UBI 14-117
Method: Src Transphosphorylation Assay
This assay is used to screen for inhibitors of the tyrosine kinase Src.
1. Coating buffer: PBS containing sodium azide (0.2 mg/ml).
3. Wash buffer: PBS containing 0.05% v/v Tween 20 (PBS-TWEEN)
5. ATP (40 [M)+MgCl2 (80 mM) in distilled water.
6. MgCl2 (80 mM) in distilled water (for no ATP blanks).
7. Test compounds, 10 mM in DMSO.
8. Assay Buffer: 100 mM HEPES, pH 7.4, containing 2 mM DTT, 0.2 mM sodium orthovanadate and 0.2 mgs/ml BSA.
9. Partially purified recombinant human Src (UBI (14-117)
10. Anti-phosphotyrosine (SUGEN rabbit polyclonal anti-PY).
11. HRP-linked goat anti-rabbit Ig (Biosource International #6430)
12. HRP substrate ABTS or Pierce Peroxidase substrate.
13. Corning ELISA plates.
1. Coat plates with 100 μl of 20 μg/ml poly(Glu-Tyr) (Sigma Cat. No.P0275) containing 0.01% sodium azide. Hold overnight at 4° C.
2. Block with 1% BSA at 100 μl/well for one hour at room temperature.
3. Plate test compounds (10 mM in DMSO) at 2 ul/well on a Costar plate ready for dilution with dH2O and plating to reaction plates.
4. Dilute Src kinase 1:10,000 in Reaction Buffer, for 5 plates prepare 25 ml as follows: 2.5 mls 1M HEPES pH7.4 (stored sterile at 4° C.), 21.85 ml distilled water, 0.1 ml 5% BSA, 0.5 ml 10 mM sodium orthovanadate (stored sterile at 4° C.), 50 μl 1.0M DTT (stored frozen at […]), and 2.5 μl Src Kinase (stored frozen at −80° C.).
5. Add 48 μl of distilled water to the 2 ∥l of each compound in the dilution plate then add 25 μl/well of this to the reaction plate.
6. Add 50 μl of […] to each reaction buffer well and then 25 μl ATP-MgCl2/well (MgCl2 only to no ATP blanks). Incubate at room temperature for 15 minutes on plate shaker. Stop reaction by adding 25 μl of 0.5M EDTA to each well.
7. Wash 4× with PBS-TWEEN.
8. […] Incubate with continuous shaking at room temperature for one hour.
9. Wash plates 4× with PBS-TWEEN.
10. Add 100 μl HPP-linked Ig (1:5,000) in PBS-TWEEN containing 0.5% BSA, 0.025% Non-fat milk powder, 100 μM sodium orthovanadate. Incubate with shaking at room temperature for one hour.
11. Wash plates 4× with PBS-TWEEN and then once with PBS.
12. Develop plate using ABTS or other peroxidase substrate.

[3] = target: T2, MET (Homo sapiens, UniProt P08581); assay: MET transphosphorylation assay; conditions: GST fusion protein containing the Met kinase domain, poly(glu-tyr) substrate
T2 construct: Purified GST fusion protein containing the Met kinase domain, SUGEN, Inc
T2 sequence (P08581 1078-1345 limits assumed): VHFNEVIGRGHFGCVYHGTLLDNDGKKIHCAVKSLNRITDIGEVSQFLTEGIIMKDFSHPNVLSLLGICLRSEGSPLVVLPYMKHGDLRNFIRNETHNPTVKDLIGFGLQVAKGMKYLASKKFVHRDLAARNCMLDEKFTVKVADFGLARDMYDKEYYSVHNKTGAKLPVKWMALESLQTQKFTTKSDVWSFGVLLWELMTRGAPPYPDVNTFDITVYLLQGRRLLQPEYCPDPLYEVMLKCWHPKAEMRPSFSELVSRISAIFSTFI
Method: MET TRANSPHOSPHORYLATION ASSAY
This assay is used to measure phosphotyrosine levels on a poly(glutamic acid:tyrosine, 4:1) substrate as a means for identifying agonists/antagonists of met transphosphorylation of the substrate.
1. Corning 96-well ELISA plates, Corning Catalog #25805-96.
2. Poly(glu-tyr), 4:1, Sigma, Cat. No; P 0275.
5. Blocking Buffer: Dissolve 25 g Bovine Serum Albumin, Sigma Cat. No A-7888, in 500 ml PBS, filter through a […] filter.
6. Purified GST fusion protein containing the Met kinase domain, SUGEN, Inc.
8. 10% aqueous (MilliQue H2O) DMSO.
9. 10 mM aqueous (dH2O) Adenosine-5′-triphosphate, Sigma Cat. No. A-5394.
10. 2×Kinase Dilution Buffer: for 100 ml, mix 10 mL 1M HEPES at pH 7.5 with 0.4 mL 5% BSA/PBS, 0.2 mL 0.1 M sodium orthovanadate and 1 mL 5M sodium chloride in 88.4 mL dH2O.
11. 4×ATP Reaction Mixture: for 10 mL, mix 0.4 mL 1 M manganese chloride and 0.02 mL 0.1 M ATP in 9.56 mL dH2O.
12. 4×Negative Controls Mixture: for 10 mL, mix 0.4 mL 1 M manganese chloride in 9.6 mL dH2O.
13. NUNC 96-well V bottom polypropylene plates, Applied Scientific Catalog #S-72092
15. Antibody Dilution Buffer: for 100 mL, mix 10 mL 5% BSA/PBS, 0.5 mL 5% Carnation® Instant Milk in PBS and 0.1 mL 0.1 M sodium orthovanadate in 88.4 mL TBST.
16. Rabbit polyclonal antophosphotyrosine antibody, SUGEN, Inc.
17. Goat anti-rabbit horseradish peroxidase conjugated antibody, Biosource, Inc.
18. ABTS Solution: for 1 L, mix 19.21 g citric acid, 35.49 g Na2HPO4 and 500 mg ABTS with sufficient dH2O to make 1 L.
19. ABTS/H2O2: mix 15 mL ABST solution with 2μL H2O2 five minutes before use.
1. Coat ELISA plates with 2 μg Poly(Glu-Tyr) in 100 μL PBS, hold overnight at 4° C.
2. Block plate with 150 μL of 5% BSA/PBS for 60 min.
3. Wash plate twice with PBS then once with 50 mM Hepes buffer pH 7.4.
4. Add 50 μl of the diluted kinase to all wells. (Purified kinase is diluted with Kinase Dilution Buffer. Final concentration should be 10 ng/well.)
5. Add 25 μL of the test compound (in 4% DMSO) or DMSO alone (4% in dH2O) for controls to plate.
6. Incubate the kinase/compound mixture for 15 minutes.
7. Add 25 μL of 40 mM MnCl2 to the negative control wells.
8. Add 25 μL ATP/MnCl2 mixture to the all other wells (except the negative controls). Incubate for 5 min.
9. Add 25 μL 500 mM EDTA to stop reaction.
10. Wash plate 3× with TBST.
11. Add 100 μL rabbit polyclonal anti-Ptyr diluted 1:10,000 in Antibody Dilution Buffer to each well. Incubate, with shaking, at room temperature for one hour.
12. Wash plate 3× with TBST.
13. Dilute Biosource HRP conjugated anti-rabbit antibody 1:6,000 in Antibody Dilution buffer. Add 100 μL per well and incubate at room temperature, with shaking, for one hour.
14. Wash plate 1× with PBS.
15. Add 100 μl of ABTS/H2O2 solution to each well.
16. If necessary, stop the development reaction with the addition of 100 μl of 0.2M HCl per well.
17. Read plate on Dynatech MR7000 ELISA reader with the test filter at 410 nM and the reference filter at 630 nM.

T1 sequence (P12931 whole entry): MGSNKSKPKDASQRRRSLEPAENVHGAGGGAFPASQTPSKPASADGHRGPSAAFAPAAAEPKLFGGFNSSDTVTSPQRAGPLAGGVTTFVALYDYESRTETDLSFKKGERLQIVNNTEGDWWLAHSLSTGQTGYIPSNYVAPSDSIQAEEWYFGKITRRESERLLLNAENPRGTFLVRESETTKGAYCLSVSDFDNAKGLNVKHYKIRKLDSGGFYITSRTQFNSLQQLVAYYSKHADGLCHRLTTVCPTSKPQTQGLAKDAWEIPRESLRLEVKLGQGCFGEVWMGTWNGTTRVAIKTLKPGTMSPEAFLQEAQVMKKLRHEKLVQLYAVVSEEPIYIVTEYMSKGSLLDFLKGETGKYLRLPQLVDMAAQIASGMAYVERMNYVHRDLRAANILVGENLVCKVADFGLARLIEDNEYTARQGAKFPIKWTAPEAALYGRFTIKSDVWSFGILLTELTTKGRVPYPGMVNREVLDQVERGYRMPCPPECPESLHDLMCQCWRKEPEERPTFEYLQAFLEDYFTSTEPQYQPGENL
Sequence of P38 (Q16539 whole entry): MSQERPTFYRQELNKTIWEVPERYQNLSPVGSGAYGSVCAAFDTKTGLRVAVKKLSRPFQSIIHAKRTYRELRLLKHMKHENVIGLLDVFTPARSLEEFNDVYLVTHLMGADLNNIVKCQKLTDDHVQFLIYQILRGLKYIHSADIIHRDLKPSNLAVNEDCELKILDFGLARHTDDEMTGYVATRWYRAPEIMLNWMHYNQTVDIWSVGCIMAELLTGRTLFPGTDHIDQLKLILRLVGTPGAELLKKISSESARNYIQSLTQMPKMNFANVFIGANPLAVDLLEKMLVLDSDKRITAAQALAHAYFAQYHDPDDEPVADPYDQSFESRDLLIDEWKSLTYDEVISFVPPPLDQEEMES

Compound	pIC50 [1]	pIC50 [2]	pIC50 [3]
Cc1[nH]c(/C=C2\C(=O)Nc3cccc(-c4ccc(Cl)cc4)c32)c(C)c1C(=O)N1CCN(C)CC1 [Example 20, 4-(4-Chloro-phenyl)-3-[3,5-dimethyl-4-(4-methyl-piperazine-1-carbonyl)-1H-pyrrol-2-ylmethylene]-1,3-dihydro-indol-2-one]	< 5.00	4.98	6.28
Cc1[nH]c(/C=C2\C(=O)Nc3cccc(-c4ccc(Cl)cc4)c32)c(C)c1C(=O)NCCN1CCCC1 [Example 22, 5-[4-(4-Chloro-phenyl)-2-oxo-1,2-dihydro-indol-3-ylidenemethyl]-2,4-dimethyl-1H-pyrrole-3-carboxylic Acid (2-Pyrrolidin-1-yl-ethyl)-amide]	4.88	5.80	6.85
Cc1[nH]c(/C=C2\C(=O)Nc3cccc(-c4cccc(F)c4)c32)c(C)c1C(=O)NCCn1ccnn1 [Example 15, 5-[4-(3-Fluoro-phenyl)-2-oxo-1,2-dihydro-indol-3-ylidenemethyl]-2,4-dimethyl-1H-pyrrole-3-carboxylic Acid (2-[1,2,3]Triazol-1-yl-ethyl)-amide]	5.31	5.64	6.43
CCN(CC)CCNC(=O)c1c(C)[nH]c(/C=C2\C(=O)Nc3cccc(-c4cccc(OC)c4)c32)c1C [Example 46, 5-[4-(3-Methoxy-phenyl)-2-oxo-1,2-dihydro-indol-3-ylidenemethyl]-2,4-dimethyl-1H-pyrrole-3-carboxylic Acid (2-Diethylamino-ethyl)-amide]	< 5.00	6.18	6.92
